# Activity calls are given as the source filed them. The calls are words filed in the database; no cut-off is given here.
# Columns and labels:
# Staphylococcus aureus [1] = assay: Growth inhibition of Staphylococcus aureus ATCC 29213 incubated in MHB broth for 24 hrs; format: organism-based
# Enterococcus faecalis = assay: Growth inhibition of Enterococcus faecalis ATCC 29212 incubated in MHB broth for 24 hrs; format: organism-based
# Streptococcus pneumoniae = assay: Growth inhibition of Streptococcus pneumoniae ATCC 49619 incubated in MHB medium with lysed horse blood and 5% CO2 for 24 hrs; format: organism-based
# Clostridioides difficile [2] = assay: Antibacterial activity against Clostridium difficile ATCC 700057 incubated for 2 to 4 hrs in pre-reduced brucella broth supplemented with haemin/vitamin K and further incubation in anaerobic condition for 48 hrs; format: functional
# Clostridioides difficile [3] = assay: Antibacterial activity against Clostridium difficile NSW132 RT027 incubated for 2 to 4 hrs in pre-reduced brucella broth supplemented with haemin/vitamin K and further incubation in anaerobic condition for 48 hrs; format: functional
# Escherichia coli = assay: Growth inhibition of Escherichia coli ATCC 25922 incubated for 18 hrs; format: organism-based
# Klebsiella pneumoniae = assay: Growth inhibition of Klebsiella pneumoniae ATCC 700603 incubated for 18 hrs; format: organism-based
# Acinetobacter baumannii = assay: Growth inhibition of Acinetobacter baumannii ATCC 19606 incubated for 18 hrs without shaking by absorbance based monochromator plate reader analysis; format: organism-based, ATCC 19606 = CIP 70.34 = JCM 6841; details: in vitro
# Pseudomonas aeruginosa = assay: Growth inhibition of Pseudomonas aeruginosa ATCC 27853 incubated for 18 hrs; format: organism-based
# Staphylococcus aureus [4] = assay: Growth inhibition of methicillin-resistant Staphylococcus aureus ATCC 43300 incubated for 18 hrs; format: organism-based
# [5] = Cytotoxicity against HEK293 cells assessed as decrease in cell viability after 20 hrs by resazurin dye-based fluorescence assay; details: human
# [6] = Haemolytic activity in sheep erythrocytes assessed as induction of haemolysis at 5 ug/ml incubated for 2 hrs relative to control; format: cell-based, Ovis aries, Erythrocyte; details: read-out: Activity
# [7] = Haemolytic activity in sheep erythrocytes assessed as induction of haemolysis at 50 ug/ml incubated for 2 hrs relative to control; format: cell-based, Ovis aries, Erythrocyte; details: read-out: Activity
# Staphylococcus aureus [8] = assay: Growth inhibition of methicillin resistant Staphylococcus aureus NCTC 10442 incubated in MHB medium for 24 hrs; format: organism-based
# Staphylococcus aureus [9] = assay: Induction of cytoplasmic membrane depolarization in Staphylococcus aureus ATCC 29213 at 8 ug/ml by DiSC3-5 dye based fluorescence method; format: organism-based
# Staphylococcus aureus [10] = assay: Induction of cytoplasmic membrane permeabilization in Staphylococcus aureus ATCC 29213 at 8 ug/ml by propidium iodide staining based fluorescence method; format: organism-based
# Clostridioides difficile [11] = assay: (§1) Antibacterial activity against Clostridium difficile ribotype 027 M7404 spores infected in antibiotic cocktail-induced CDI C57BL/6J mouse model assessed as decrease in diarrhea at 100 mg/kg administered via oral gavage for every 12 hrs starting from 6 hrs post-infection and measured at 24 hrs post infection; format: functional, organism-based; details: genomovar ribotype 027 M7404
# Clostridioides difficile [12] = assay: as §1, with “protection against bacterial infection” for “decrease in diarrhea”, “2 days” for “24 hrs”; format: functional, organism-based; details: genomovar ribotype 027 M7404
# Clostridioides difficile [13] = assay: as §1, with “weight loss” for “diarrhea”; format: functional, organism-based; details: genomovar ribotype 027 M7404
# Clostridioides difficile [14] = assay: as §1, with “decrease in fecal spore load at 100” for “decrease in diarrhea at 100”, “post infection by heat shock based plating method” for “post infection”; format: functional, organism-based; details: genomovar ribotype 027 M7404
# Clostridioides difficile [15] = assay: as §1, with “physiological appearance score” for “diarrhea”; format: functional, organism-based; details: genomovar ribotype 027 M7404
SMILES,MIC (Staphylococcus aureus [1]) [µg/mL],MIC (Enterococcus faecalis) [µg/mL],MIC (Streptococcus pneumoniae) [µg/mL],MIC (Clostridioides difficile [2]) [µg/mL],MIC (Clostridioides difficile [3]) [µg/mL],MIC (Escherichia coli) [µg/mL],MIC (Klebsiella pneumoniae) [µg/mL],MIC (Acinetobacter baumannii) [µg/mL],MIC (Pseudomonas aeruginosa) [µg/mL],MIC (Staphylococcus aureus [4]) [µg/mL],CC50 at 20 h [5] [µg/mL],MIC (Staphylococcus aureus [8]) [µg/mL],further results
CC(C)CCOc1ccccc1-c1ccccc1OCc1cn([C@H](CCCNC(=N)N)C(=O)N[C@H](CCCCN)Cn2cc(CC3CCCCC3)nn2)nn1.Cl.Cl,4,4,2,8,16,16,16,16,16,8,> 32,,"hemolysis at 2 h, 5 ug/ml [6]: 1.6%; hemolysis at 2 h, 50 ug/ml [7]: 33.7%"
CC(C)CCOc1ccc2ccccc2c1-c1c(OCc2cn([C@H](CCCNC(=N)N)C(=O)NCCc3ccccc3)nn2)ccc2ccccc12.Cl,8,4,16,16,64,> 32,> 32,> 32,> 32,8,> 32,,"hemolysis at 2 h, 5 ug/ml [6]: 0.1%; hemolysis at 2 h, 50 ug/ml [7]: 55.2%"
CC(C)CCOc1ccccc1-c1ccccc1OCc1cn([C@H](CCCNC(=N)N)C(=O)Nc2cccc(F)c2)nn1.Cl,4,8,8,32,64,> 32,> 32,> 32,> 32,4,> 32,8,
CC(C)CCOc1ccccc1-c1ccccc1OCc1cn([C@H](CCCCN)C(=O)NCCc2ccc(F)cc2)nn1.Cl,4,8,8,32,64,> 32,> 32,16,> 32,8,5.5,8,
CC(C)CCOc1ccccc1-c1ccccc1OCc1cn([C@H](CCCNC(=N)N)C(=O)NCc2ccccc2)nn1.Cl,4,8,4,32,64,> 32,> 32,32,> 32,8,16.8,8,
CC(C)CCOc1ccccc1-c1ccccc1OCc1cn([C@H](CCCNC(=N)N)C(=O)N[C@H](CCCCN)Cn2cc(CCc3ccccc3)nn2)nn1.Cl.Cl,4,8,2,16,16,16,16,32,16,4,> 32,8,
CC(C)CCOc1ccc2ccccc2c1-c1c(OCc2cn([C@H](CCCNC(=N)N)C(=O)NCc3ccccc3)nn2)ccc2ccccc12.Cl,4,2,8,16,16,> 32,> 32,> 32,> 32,8,16.5,8,
CC(C)CCOc1ccc2ccccc2c1-c1c(OCc2cn([C@H](CCCCN)C(=O)N[C@H](CCCNC(=N)N)Cn3cc(CCc4ccccc4)nn3)nn2)ccc2ccccc12.Cl.Cl,4,4,4,16,16,> 32,> 32,8,16,2,> 32,,"hemolysis at 2 h, 5 ug/ml [6]: 1.5%; hemolysis at 2 h, 50 ug/ml [7]: 75.2%"
CC(C)CCOc1ccccc1-c1ccccc1OCc1cn([C@H](CCCCN)C(=O)NCc2ccc(C(F)(F)F)cc2)nn1.Cl,4,4,8,32,32,> 32,> 32,32,> 32,8,> 32,,
CC(C)CCOc1ccc2ccccc2c1-c1c(OCc2cn([C@H](CCCNC(=N)N)C(=O)N[C@H](CCCCN)Cn3cc(CC4CCCCC4)nn3)nn2)ccc2ccccc12.Cl.Cl,4,4,2,8,8,> 32,> 32,32,32,,> 32,,"hemolysis at 2 h, 5 ug/ml [6]: 1.8%; hemolysis at 2 h, 50 ug/ml [7]: 71.5%"
CC(C)CCOc1ccccc1-c1ccccc1OCc1cn([C@H](CCCCN)C(=O)N[C@H](CCCNC(=N)N)Cn2cc(Cc3ccccc3)nn2)nn1.Cl.Cl,4,8,4,8,16,8,32,16,16,4,17.1,,
CN[C@H](CC(C)C)C(=O)N[C@H]1C(=O)N[C@@H](CC(N)=O)C(=O)N[C@H]2C(=O)N[C@H]3C(=O)N[C@H](C(=O)N[C@H](C(=O)O)c4cc(O)cc(O)c4-c4cc3ccc4O)[C@H](O)c3ccc(c(Cl)c3)Oc3cc2cc(c3O[C@@H]2O[C@H](CO)[C@@H](O)[C@H](O)[C@H]2O[C@H]2C[C@](C)(N)[C@H](O)[C@H](C)O2)Oc2ccc(cc2Cl)[C@H]1O [VANCOMYCIN],1,4,1,0.5,0.5,,,,,1,,1,Activity (Staphylococcus aureus [9]): inactive; Activity (Staphylococcus aureus [10]): inactive
COc1cc(NC(=O)[C@@H](CCCNC(=N)N)n2cc(COc3ccccc3-c3ccccc3OCCC(C)C)nn2)cc(OC)c1.Cl,4,4,4,32,32,> 32,> 32,> 32,> 32,8,12.2,,
CC(C)CCOc1ccc2ccccc2c1-c1c(OCc2cn([C@H](CCCCN)C(=O)N[C@H](CCCNC(=N)N)C(=O)NCCc3ccccc3)nn2)ccc2ccccc12.Cl.Cl,8,4,8,16,32,> 32,16,8,32,2,15.2,,
CC(C)CCOc1ccccc1-c1ccccc1OCc1cn(C[C@@H](CCCCN)NC(=O)[C@@H](CCCNC(=N)N)n2cc(CC3CCCCC3)nn2)nn1.Cl.Cl,,,,1,,,,,,,,,Activity (Clostridioides difficile [11]): inactive; Activity (Clostridioides difficile [12]): inactive; Activity (Clostridioides difficile [13]): inactive; Activity (Clostridioides difficile [14]): inactive; Activity (Clostridioides difficile [15]): inactive
CC(C)CCOc1ccccc1-c1ccccc1OCc1cn([C@H](CCCNC(=N)N)C(=O)NCCc2ccc(F)cc2)nn1.Cl,4,4,4,64,64,> 32,> 32,> 32,> 32,16,19.1,,
CC(C)CCOc1ccccc1-c1ccccc1OCc1cn(C[C@@H](CCCCN)NC(=O)[C@@H](CCCNC(=N)N)n2cc(C3CCCCC3)nn2)nn1.Cl.Cl,,,,4,,,,,,,,,Activity (Clostridioides difficile [11]): inactive; Activity (Clostridioides difficile [12]): inactive; Activity (Clostridioides difficile [13]): inactive; Activity (Clostridioides difficile [14]): inactive; Activity (Clostridioides difficile [15]): inactive

# Reference: ChEMBL document CHEMBL4393656, “Cationic biaryl 1,2,3-triazolyl peptidomimetic amphiphiles targeting Clostridioides (Clostridium) difficile: Synthesis, antibacterial evaluation and an in vivo C. difficile infection model” (Eur J Med Chem, 2019)
